# Measured values published in patent US10188706B2, “Plasminogen activator mutants as anti-fibrinolytic agents” (HADASIT MEDICAL RESEARCH SERVICES & DEVELOPMENT LIMITED, priority 2012, dated 2019).
# Entries after “also recorded” stand apart in the source; their conditions may differ.
# What was measured:
# [1] = test system: tPA-/- and uPA-/- mice subjected to CHI; assay: Closed head injury (CHI) model in tPA-/- and uPA-/- mice; type: in vivo, mouse; details: 5 mg/kg each
# Text: (§1) Closed Head Injury (CHI) Model
# (§2) Head trauma was induced by using a modified weight-drop device, as previously described (Chen Y. et al. (1996) J. Neurotrauma, 13:557-568). Briefly, after induction of ether anesthesia, a midline longitudinal incision was made, the skin was retracted and the skull was exposed. The left anterior frontal area was identified and a Teflon tipped cone (2-mm diameter) was placed 1 mm lateral to the midline, in the midcoronal plane. The head was held in place manually and a 75-g weight was dropped on the cone from a height of 18 cm, resulting in focal injury to the left hemisphere. After trauma, the mice received supporting oxygenation with 95% 02 for no longer than 2 min and were then returned to their cages. In sham controls only anesthesia and skin incision were carried out.
# WT mice subjected to CHI = assay: Closed head injury (CHI) model of TBI in WT mice; type: in vivo, mouse; details: WT mice, IV immediately after or 2 hrs after CHI, Hgb at 2 or 8 hrs, MRI at 24 hrs
# Procedure: Eight to twelve weeks old C57 mice obtained from Harlan, Israel. Mice were administered standard laboratory chow and water ad libitum, and kept in controlled temperature and light conditions. Animal experiments were carried out according to the guidelines of the Hebrew University-Institutional Committee for Care and Use of Laboratory Animals, and with the committee's approval.
# as §1, §2
# [2] = test system: mice treated with Coumadin and subjected to CHI; assay: Closed head injury (CHI) in mice anticoagulated with warfarin (Coumadin); type: in vivo, mouse; details: for extent of ICH post CHI after anticoagulation: warfarin prior to CHI
# Text: as §1, §2
# uPA = target: T1, uPA (Homo sapiens, UniProt P00749); assay: Plasminogen activator activity, chromogenic assay without fibrin, activation by uPA; type: biochemical; details: plasminogen 500 nM, uPA 20 nM; mutants 100 nM or TA 200 nM alone; FIG. 2D
# T1 construct: Single-chain urokinase (uPA) was purified, characterized as previously reported; made in house
# Procedure: Plasminogen Activator Activity
# Plasminogen activator activity was determined by adding tPA (50 nM) or uPA (20 nM), to a reaction mixture containing Glu-plasminogen and the plasmin chromogenic substrate Spectrazyme PL (100 μM) in phosphate-buffered saline (PBS) at 37° C., and the light absorbance at 405 nm was measured continuously over time. The initial velocities of plasmin generation at the different conditions were calculated from the change in the A405 nm over time. The initial velocity of the reaction at each plasminogen concentration was obtained by calculating the change in the rate of A405 over different time intervals and the results were expressed as the change in optical density (ΔOD) per minute, which represents the slope of the initial velocity of plasminogen activation (Higazi A et al., J Biol Chem. (1995), 270(29):17375-80).
# [3] = test system: patients undergoing elective surgery; details: 53 studies, 3836 participants (Ker K. et al. 2012); cited from earlier work
# trauma patients = details: early administration of a short course (Ker K. ibid.); cited from earlier work
compound,measurement,setting,value
WT-tPA: wild type tissue plasminogen activator; recombinant tPA from Genentech,injury phenotype (ICH) of knock-out mice after exogenous plasminogen activator,[1],rescued
same,"intracerebral hemorrhage (MRI, extravasation of Hgb) post CHI",WT mice subjected to CHI,increased the extent of intracerebral hemorrhage
same,"intracerebral hemorrhage (MRI, extravasation of Hgb) post CHI",WT mice subjected to CHI; listed as WT tPA,exacerbated
CC(=O)CC(c1ccccc1)c1c(O)c2ccccc2oc1=O (stereo not drawn) [warfarin],extent of ICH post CHI after anticoagulation,[2]; WT mice,increased the extent of ICH
same,mean INR at the time of trauma,[2]; mice anticoagulated with warfarin prior to CHI,2.5
same,extent of ICH post CHI after anticoagulation,[2]; tPA-/- or uPA-/- mice,had no such effect
"NC[C@H]1CC[C@H](C(=O)O)CC1 [TA, tranexamic acid, reference compound]",plasminogen activation by uPA in the absence of fibrin (change in OD per minute),uPA,dramatically stimulated; also recorded: mimics the effect of fibrin only in the case of uPA
same,need for blood transfusion,[3],reduced the need for blood transfusion by a third
same,"death, vascular occlusive events and frequency of blood transfusions",trauma patients,"reduced death, vascular occlusive events and the frequency of blood transfusions"
